Source: article PMC12124432, “Antimicrobial Peptide‐Peptoid Macrocycles from the Polymyxin B2 Chemical Space” (Angewandte Chemie (International Ed. in English), 2025)
Bridge positions count the residues as written; N and C are the ends. Square brackets hold non-standard residues; d marks the D form. Peptide text beside a SMILES is read from it. * marks the point of attachment. N(3-phenylpropyl)Gly = O=C(O)CNCCCc1ccccc1; Gly(NCH2CH2Ph) = O=C(O)CNCCc1ccccc1; Gly(N-2-aminoethyl) = NCCNCC(=O)O; Gly(N(CH2)3NH2) = NCCCNCC(=O)O; Heptanoyl = CCCCCCC(=O)*; Octanoyl = CCCCCCCC(=O)*; Dab = NCC[C@H](N)C(=O)O; NPrGly = CCCNCC(=O)O

Test system: P. aeruginosa PAO1
Test: Transmission electron microscopy (TEM)
Type: cell-based, Pseudomonas aeruginosa
Details: 10 × MIC, 12.5% MH, 2 h incubation at 37 °C, OD600 = 0.5
Experimental: Specific Fluorescence Enhacement
Concentration of Dansyl-PMB (μM)
Figure S9. Extracted data from the specific fluorescence enhancement data (Figure S8) from DsPMB at 485 nm. The plateau is reached at approximately 2.5 µM. Each data point represent mean ± SD, n =3.
15. Transmission Electron Microscopy (TEM)
Transmission electron microscopy was evaluated at a high cell density (10^8 CFU) and a concentration (10x MIC) that killed the bacteria, but not all of them. An overnight culture of P. aeruginosa PAO1 was regrown until exponential phase (1 mL, OD600 = 0.5) in 12.5% MH medium pH 7.4, treated with the compounds, in diluted MH medium (at pH 7.4) and incubated for 2 hours at 37 °C. Just before the samples were further prepared for the microscopy, surviving bacteria were quantified by plating 10-fold dilutions of samples in sterilized normal saline (NaCl 0.9 %) on LB agar plates. LB agar plates were incubated at 37 °C for 10 hours and the number of individual colonies was counted at each time-point, to monitor partial bacteria killing. The assay was performed in triplicates. Each bacteria sample was centrifuged at 12’000 rpm for 3 min and the supernatant was discarded. The samples were fixed overnight with 2.5% glutaraldehyde (Agar Scientific, Stansted, Essex, UK) in 0.15 M HEPES (Fluka, Buchs, Switzerland) with an osmolarity of 630 mOsm and adjusted to a pH of 7.44. […]

SMILES | TEM pattern of treated P. aeruginosa cells
CCCCCCCC(=O)N(CCc1ccccc1)CC(=O)N[C@@H](CCCCN)C(=O)N[C@@H](CC(N)=O)C(=O)N[C@H]1CCNC(=O)[C@H](CCCCN)NC(=O)CN(CCCN)C(=O)[C@H](CCCCN)NC(=O)CN(CCC)C(=O)[C@H](CCCCN)NC1=O [EB12] (Octanoyl-[Gly(NCH2CH2Ph)]KN[Dab]K[NPrGly]K[Gly(N(CH2)3NH2)]K; lactam 4-C) | aggregation of intracellular contents
CCCCCCC(=O)N[C@H](C(=O)N(CCN)CC(=O)N(CCCc1ccccc1)CC(=O)N[C@H]1CCNC(=O)[C@H](CCCCN)NC(=O)CN(CCCN)C(=O)[C@H](CCCCN)NC(=O)CNC(=O)[C@H](CCCCN)NC1=O)C(C)C [EB13] (Heptanoyl-V[Gly(N-2-aminoethyl)][N(3-phenylpropyl)Gly][Dab]KGK[Gly(N(CH2)3NH2)]K; lactam 4-C) | aggregation of intracellular contents
